# Assay results from US20250382344A1, “Soluble GLP1/GIP/NPY2 Receptor Triple Agonists” (Boehringer Ingelheim International GmH, priority 2024, published 2025).
# Experiment: Solubility in 0.1 M phosphate buffer at pH 7
# Type: physicochemical
# Settings: 0.1 M phosphate buffer at pH 7, 10 mg/mL final peptide concentration, shaking 2 hours at room temperature, peptides as TFA-salts; measured sample pH 6.5-7.0
# Protocol: Peptides (as TFA-salts) were weighed out in a filter unit (Mini-UniPrep Syringeless Filter 0.45 μm, Whatman PVDF), and 0.1 M phosphate buffer at pH 7 was added to achieve 10 mg/mL final peptide concentration. The peptides were dissolved by shaking the filter units horizontally at 600 rpm for 2 hours at room temperature. Samples were then filtered to remove any insoluble particles. Controls were prepared by weighing out the corresponding peptide solid material and dissolving it in an appropriate vehicle (e.g. ACN:H2O) to a final concentration of 1 mg/mL. Both, the control and sample were analyzed by reversed phase chromatography. The area under the peak of the sample was compared to the control and the solubility was calculated based on that ratio. The pH was measured and recorded for each sample.
row,Compound,solubility at 2 h [µg/mL]
1,"CC[C@H](C)[C@H](NC(=O)[C@H](CC(C)C)NC(=O)[C@H](Cc1c[nH]cn1)NC(=O)[C@H](CCCNC(=N)N)NC(=O)[C@@H](NC(=O)[C@H](Cc1ccccc1)NC(=O)[C@H](C)NC(=O)C(C)(C)NC(=O)[C@H](CCC(=O)O)NC(=O)[C@H](C)NC(=O)[C@H](CCC(N)=O)NC(=O)[C@H](CCCCN)NC(=O)[C@H](CCC(=O)O)NC(=O)[C@H](CC(C)C)NC(=O)C(C)(C)NC(=O)[C@@H](NC(=O)[C@H](CO)NC(=O)[C@H](Cc1ccc(O)cc1)NC(=O)[C@H](CC(=O)O)NC(=O)[C@H](CO)NC(=O)[C@@H](NC(=O)[C@H](Cc1ccccc1)NC(=O)[C@@H](NC(=O)CNC(=O)[C@H](CCC(=O)O)NC(=O)C(C)(C)NC(=O)[C@@H](N)Cc1ccc(O)cc1)[C@@H](C)O)[C@@H](C)O)[C@@H](C)CC)C(C)C)C(=O)N[C@@H](CC(N)=O)C(=O)N[C@@H](CCCCNC(=O)[C@@H](N)CCCCNC(=O)[C@@H](N)CCCCNC(=O)CC[C@H](NC(=O)CC[C@H](NC(=O)CC[C@H](NC(=O)CC[C@H](NC(=O)CC[C@H](NC(=O)CC[C@H](NC(=O)CCCCCCCCCCCCCCCCCCC(=O)O)C(=O)O)C(=O)O)C(=O)O)C(=O)O)C(=O)O)C(=O)O)C(=O)NC(C)(C)C(=O)N[C@H](C(=O)N[C@@H](CCCNC(=N)N)C(=O)N[C@@H](CCC(N)=O)C(=O)N[C@@H](CCCNC(=N)N)C(=O)N[C@@H](Cc1ccc(O)cc1)C(N)=O)[C@@H](C)O [Compound 82, Y-Aib-E-G-T-F-T-S-D-Y-S-I-Aib-L-E-K-Q-A-E-Aib-A-F-V-R-H-L-I-N-K(1,3)-Aib-T-R-Q-R-Y-NH2.C20DA-gGlu-gGlu-gGlu-gGlu-gGlu-gGlu-eLys-eLys(1,2)]",9000
2,"CC[C@H](C)[C@H](NC(=O)[C@H](CC(C)C)NC(=O)[C@H](Cc1c[nH]cn1)NC(=O)[C@H](CCCNC(=N)N)NC(=O)[C@@H](NC(=O)[C@H](Cc1ccccc1)NC(=O)[C@H](C)NC(=O)C(C)(C)NC(=O)[C@H](CCC(N)=O)NC(=O)[C@H](C)NC(=O)[C@H](CCC(N)=O)NC(=O)[C@H](CCCCN)NC(=O)[C@H](CCC(=O)O)NC(=O)[C@H](CC(C)C)NC(=O)C(C)(C)NC(=O)[C@@H](NC(=O)[C@H](CO)NC(=O)[C@H](Cc1ccc(O)cc1)NC(=O)[C@H](CC(=O)O)NC(=O)[C@H](CO)NC(=O)[C@@H](NC(=O)[C@H](Cc1ccccc1)NC(=O)[C@@H](NC(=O)[C@H](C)NC(=O)[C@H](CCC(=O)O)NC(=O)C(C)(C)NC(=O)[C@@H](N)Cc1ccc(O)cc1)[C@@H](C)O)[C@@H](C)O)[C@@H](C)CC)C(C)C)C(=O)N[C@@H](CC(N)=O)C(=O)N[C@@H](CCCCNC(=O)[C@@H](N)CCCCNC(=O)CC[C@H](NC(=O)CC[C@H](NC(=O)CC[C@H](NC(=O)CC[C@H](NC(=O)CC[C@H](NC(=O)CC[C@H](NC(=O)CCCCCCCCCCCCCCCCC(=O)O)C(=O)O)C(=O)O)C(=O)O)C(=O)O)C(=O)O)C(=O)O)C(=O)NC(C)(C)C(=O)N[C@H](C(=O)N[C@@H](CCCNC(=N)N)C(=O)N[C@@H](CCC(N)=O)C(=O)N[C@@H](CCCNC(=N)N)C(=O)N[C@@H](Cc1ccc(O)cc1)C(N)=O)[C@@H](C)O [Compound 93, Y-Aib-E-A-T-F-T-S-D-Y-S-I-Aib-L-E-K-Q-A-Q-Aib-A-F-V-R-H-L-I-N-K(1,3)-Aib-T-R-Q-R-Y-NH2.C18DA-gGlu-gGlu-gGlu-gGlu-gGlu-gGlu-eLys(1,2)]",10000
3,"CC[C@H](C)[C@H](NC(=O)[C@H](CC(C)C)NC(=O)[C@H](Cc1c[nH]cn1)NC(=O)[C@H](CCCNC(=N)N)NC(=O)[C@@H](NC(=O)[C@H](Cc1ccccc1)NC(=O)[C@H](C)NC(=O)C(C)(C)NC(=O)[C@H](CCC(N)=O)NC(=O)[C@H](C)NC(=O)[C@H](CCC(N)=O)NC(=O)CNC(=O)[C@H](CCC(=O)O)NC(=O)[C@H](CC(C)C)NC(=O)C(C)(C)NC(=O)[C@@H](NC(=O)[C@H](CO)NC(=O)[C@H](Cc1ccc(O)cc1)NC(=O)[C@H](CC(=O)O)NC(=O)[C@H](CO)NC(=O)[C@@H](NC(=O)[C@H](Cc1ccccc1)NC(=O)[C@@H](NC(=O)CNC(=O)[C@H](CCC(=O)O)NC(=O)C(C)(C)NC(=O)[C@@H](N)Cc1ccc(O)cc1)[C@@H](C)O)[C@@H](C)O)[C@@H](C)CC)C(C)C)C(=O)N[C@@H](CC(N)=O)C(=O)N[C@@H](CCCCNC(=O)[C@@H](N)CCCCNC(=O)CC[C@H](NC(=O)CC[C@H](NC(=O)CC[C@H](NC(=O)CC[C@H](NC(=O)CC[C@H](NC(=O)CC[C@H](NC(=O)CCCCCCCCCCCCCCCCC(=O)O)C(=O)O)C(=O)O)C(=O)O)C(=O)O)C(=O)O)C(=O)O)C(=O)NC(C)(C)C(=O)N[C@H](C(=O)N[C@@H](CCCNC(=N)N)C(=O)N[C@@H](CCC(N)=O)C(=O)N[C@@H](CCCNC(=N)N)C(=O)N[C@@H](Cc1ccc(O)cc1)C(N)=O)[C@@H](C)O [Compound 95, Y-Aib-E-G-T-F-T-S-D-Y-S-I-Aib-L-E-G-Q-A-Q-Aib-A-F-V-R-H-L-I-N-K(1,3)-Aib-T-R-Q-R-Y-NH2.C18DA-gGlu-gGlu-gGlu-gGlu-gGlu-gGlu-eLys(1,2)]",4400

# Same assay, conditions: 0.1 M phosphate buffer at pH 7, 10 mg/mL final peptide concentration, shaking 2 hours at room temperature, peptides as TFA-salts; measured sample pH 6.5-7.0; read-out: Solubility
row,Compound,solubility [µg/mL]
1,"CC[C@H](C)[C@H](NC(=O)[C@H](CC(C)C)NC(=O)[C@H](Cc1c[nH]cn1)NC(=O)[C@H](CCCNC(=N)N)NC(=O)[C@@H](NC(=O)[C@H](Cc1ccccc1)NC(=O)[C@H](CCC(=O)O)NC(=O)C(C)(C)NC(=O)[C@H](CCC(N)=O)NC(=O)[C@H](C)NC(=O)[C@H](CCC(N)=O)NC(=O)[C@H](CCCCN)NC(=O)[C@H](CCC(=O)O)NC(=O)[C@H](CC(C)C)NC(=O)C(C)(C)NC(=O)[C@@H](NC(=O)[C@H](CO)NC(=O)[C@H](Cc1ccc(O)cc1)NC(=O)[C@H](CC(=O)O)NC(=O)[C@H](CO)NC(=O)[C@@H](NC(=O)[C@H](Cc1ccccc1)NC(=O)[C@@H](NC(=O)CNC(=O)[C@H](CCC(=O)O)NC(=O)C(C)(C)NC(=O)[C@@H](N)Cc1ccc(O)cc1)[C@@H](C)O)[C@@H](C)O)[C@@H](C)CC)C(C)C)C(=O)N[C@@H](CC(N)=O)C(=O)N[C@@H](CCCCNC(=O)CCCCCNC(=O)CC[C@H](NC(=O)[C@H](CCC(=O)O)NC(=O)CC[C@H](NC(=O)CC[C@H](NC(=O)CC[C@H](NC(=O)CCCCCCCCCCCCCCCCC(=O)O)C(=O)O)C(=O)O)C(=O)O)C(=O)O)C(=O)N[C@@H](CC(C)C)C(=O)N[C@H](C(=O)N[C@@H](CCCNC(=N)N)C(=O)N[C@@H](CCC(N)=O)C(=O)N[C@@H](CCCNC(=N)N)C(=O)N[C@@H](Cc1ccc(O)cc1)C(N)=O)[C@@H](C)O [Compound 45, Y-Aib-E-G-T-F-T-S-D-Y-S-I-Aib-L-E-K-Q-A-Q-Aib-E-F-V-R-H-L-I-N-K(1,3)-L-T-R-Q-R-Y-NH2.C18DA-gGlu-gGlu-gGlu-gGlu-gGlu-AHX(1,2)]",5000
2,"CC[C@H](C)[C@H](NC(=O)[C@H](CC(C)C)NC(=O)[C@H](Cc1c[nH]cn1)NC(=O)[C@H](CCCNC(=N)N)NC(=O)[C@@H](NC(=O)[C@H](Cc1ccccc1)NC(=O)[C@H](C)NC(=O)C(C)(C)NC(=O)[C@H](CCC(N)=O)NC(=O)[C@H](C)NC(=O)[C@H](CCC(N)=O)NC(=O)[C@H](CCCCN)NC(=O)[C@H](CCC(=O)O)NC(=O)[C@H](CC(C)C)NC(=O)C(C)(C)NC(=O)[C@@H](NC(=O)[C@H](CO)NC(=O)[C@H](Cc1ccc(O)cc1)NC(=O)[C@H](CC(=O)O)NC(=O)[C@H](CO)NC(=O)[C@@H](NC(=O)[C@H](Cc1ccccc1)NC(=O)[C@@H](NC(=O)CNC(=O)[C@H](CCC(=O)O)NC(=O)C(C)(C)NC(=O)[C@@H](N)Cc1ccc(O)cc1)[C@@H](C)O)[C@@H](C)O)[C@@H](C)CC)C(C)C)C(=O)N[C@@H](CC(N)=O)C(=O)N[C@@H](CCCCNC(=O)CC[C@H](NC(=O)CC[C@H](NC(=O)[C@@H](N)CCCCNC(=O)CC[C@H](NC(=O)CC[C@H](NC(=O)CC[C@H](NC(=O)CC[C@H](NC(=O)CCCCCCCCCCCCCCCCCCC(=O)O)C(=O)O)C(=O)O)C(=O)O)C(=O)O)C(=O)O)C(=O)O)C(=O)NC(C)(C)C(=O)N[C@H](C(=O)N[C@@H](CCCNC(=N)N)C(=O)N[C@@H](CCC(N)=O)C(=O)N[C@@H](CCCNC(=N)N)C(=O)N[C@@H](Cc1ccc(O)cc1)C(N)=O)[C@@H](C)O [Compound 52, Y-Aib-E-G-T-F-T-S-D-Y-S-I-Aib-L-E-K-Q-A-Q-Aib-A-F-V-R-H-L-I-N-K(1,3)-Aib-T-R-Q-R-Y-NH2.C20DA-gGlu-gGlu-gGlu-gGlu-eLys-gGlu-gGlu(1,2)]",9400
3,"CC[C@H](C)[C@H](NC(=O)[C@H](Cc1ccccc1)NC(=O)[C@H](C)NC(=O)C(C)(C)NC(=O)[C@H](CCC(N)=O)NC(=O)[C@H](C)NC(=O)[C@H](CCC(N)=O)NC(=O)[C@H](CCCCN)NC(=O)[C@H](CC(=O)O)NC(=O)[C@H](CC(C)C)NC(=O)C(C)(C)NC(=O)[C@@H](NC(=O)[C@H](CO)NC(=O)[C@H](Cc1ccc(O)cc1)NC(=O)[C@H](CC(=O)O)NC(=O)[C@H](CO)NC(=O)[C@@H](NC(=O)[C@H](Cc1ccccc1)NC(=O)[C@@H](NC(=O)CNC(=O)[C@H](CCC(=O)O)NC(=O)C(C)(C)NC(=O)[C@@H](N)Cc1ccc(O)cc1)[C@@H](C)O)[C@@H](C)O)[C@@H](C)CC)C(=O)N[C@@H](CCCNC(=N)N)C(=O)N[C@@H](Cc1c[nH]cn1)C(=O)N[C@@H](CC(C)C)C(=O)N[C@H](C(=O)N[C@@H](CC(N)=O)C(=O)N[C@@H](CCCCNC(=O)[C@@H](N)CCCCNC(=O)CC[C@H](NC(=O)CC[C@H](NC(=O)CC[C@H](NC(=O)CC[C@H](NC(=O)CC[C@H](NC(=O)CC[C@H](NC(=O)CCCCCCCCCCCCCCCCC(=O)O)C(=O)O)C(=O)O)C(=O)O)C(=O)O)C(=O)O)C(=O)O)C(=O)NC(C)(C)C(=O)N[C@H](C(=O)N[C@@H](CCCNC(=N)N)C(=O)N[C@@H](CCC(N)=O)C(=O)N[C@@H](CCCNC(=N)N)C(=O)N[C@@H](Cc1ccc(O)cc1)C(N)=O)[C@@H](C)O)[C@@H](C)CC [Compound 102, Y-Aib-E-G-T-F-T-S-D-Y-S-I-Aib-L-D-K-Q-A-Q-Aib-A-F-I-R-H-L-I-N-K(1,3)-Aib-T-R-Q-R-Y-NH2.C18DA-gGlu-gGlu-gGlu-gGlu-gGlu-gGlu-eLys(1,2)]",9100
